The numbers were not newly measured in paper PMC4360375 (Journal of Medicinal Chemistry, 2015), which cites them from elsewhere.

Details of series [1]: method as in PMID 10903390. The note with it: cited from earlier work.
Series [2] deals with other neurotransmitter reuptake systems (dopamine, serotonin, choline, aspartate). Details: method as in PMID 3509068. The following applies: cited from earlier work.

`O=C(O)C1=CCCNC1` [compound 3, guvacine]: the blood-brain barrier penetration entry in series [1] is “unable to penetrate the blood–brain barrier”.

With liothyronine [27a], the “activity on other neurotransmitter reuptake systems” value in series [2] is given as “without major activity”.
